In ChEMBL document CHEMBL5291721, “A preclinical secondary pharmacology resource illuminates target-adverse drug reaction associations of marketed drugs” (Nat Commun, 2023):

Tests used:
[1] = target: T1, Corticotropin-releasing factor receptor 2 (Homo sapiens, UniProt Q13324)
T1 sequence (Q13324 whole entry): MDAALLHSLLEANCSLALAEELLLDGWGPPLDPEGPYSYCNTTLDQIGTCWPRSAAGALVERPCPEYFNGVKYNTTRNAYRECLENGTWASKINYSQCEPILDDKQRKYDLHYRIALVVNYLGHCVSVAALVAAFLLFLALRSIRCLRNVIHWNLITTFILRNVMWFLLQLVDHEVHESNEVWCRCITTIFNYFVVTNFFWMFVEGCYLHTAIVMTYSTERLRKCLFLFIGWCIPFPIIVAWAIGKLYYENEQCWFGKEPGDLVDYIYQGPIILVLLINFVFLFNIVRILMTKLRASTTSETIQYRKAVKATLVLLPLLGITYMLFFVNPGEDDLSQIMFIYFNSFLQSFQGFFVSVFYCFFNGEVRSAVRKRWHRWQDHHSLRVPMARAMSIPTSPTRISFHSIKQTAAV

[2] = target: T2, Endothelin receptor type B (Homo sapiens, UniProt P24530)
T2 sequence (P24530 whole entry): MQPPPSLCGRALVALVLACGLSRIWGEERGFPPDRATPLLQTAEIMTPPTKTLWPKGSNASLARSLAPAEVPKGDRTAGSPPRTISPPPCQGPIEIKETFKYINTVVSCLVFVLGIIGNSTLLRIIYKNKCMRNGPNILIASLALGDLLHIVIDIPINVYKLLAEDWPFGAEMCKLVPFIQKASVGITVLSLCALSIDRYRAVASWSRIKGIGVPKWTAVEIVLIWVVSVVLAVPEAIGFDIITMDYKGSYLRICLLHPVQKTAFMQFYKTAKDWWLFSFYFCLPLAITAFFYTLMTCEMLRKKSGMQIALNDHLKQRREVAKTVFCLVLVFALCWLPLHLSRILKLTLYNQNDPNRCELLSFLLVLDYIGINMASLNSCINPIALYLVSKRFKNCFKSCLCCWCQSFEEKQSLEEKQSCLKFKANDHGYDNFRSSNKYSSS

[3] = target: T3, Gastric inhibitory polypeptide receptor (Homo sapiens, UniProt P48546)
T3 sequence (P48546 whole entry): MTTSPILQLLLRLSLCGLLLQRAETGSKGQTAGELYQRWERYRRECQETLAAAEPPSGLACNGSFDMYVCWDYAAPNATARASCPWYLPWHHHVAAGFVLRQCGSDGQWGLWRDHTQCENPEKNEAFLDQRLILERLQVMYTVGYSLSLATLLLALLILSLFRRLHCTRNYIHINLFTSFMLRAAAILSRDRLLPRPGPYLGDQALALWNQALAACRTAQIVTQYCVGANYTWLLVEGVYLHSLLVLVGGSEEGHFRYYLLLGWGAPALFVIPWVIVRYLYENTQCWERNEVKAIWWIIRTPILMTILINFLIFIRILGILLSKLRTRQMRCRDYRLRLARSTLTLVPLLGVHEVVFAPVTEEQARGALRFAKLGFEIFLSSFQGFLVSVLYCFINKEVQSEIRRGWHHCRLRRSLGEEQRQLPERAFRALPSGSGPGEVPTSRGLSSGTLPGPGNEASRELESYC

[4] = target: 5-hydroxytryptamine receptor 2B (Homo sapiens, UniProt P41595)
Chain of 5-hydroxytryptamine receptor 2B (P41595 whole entry): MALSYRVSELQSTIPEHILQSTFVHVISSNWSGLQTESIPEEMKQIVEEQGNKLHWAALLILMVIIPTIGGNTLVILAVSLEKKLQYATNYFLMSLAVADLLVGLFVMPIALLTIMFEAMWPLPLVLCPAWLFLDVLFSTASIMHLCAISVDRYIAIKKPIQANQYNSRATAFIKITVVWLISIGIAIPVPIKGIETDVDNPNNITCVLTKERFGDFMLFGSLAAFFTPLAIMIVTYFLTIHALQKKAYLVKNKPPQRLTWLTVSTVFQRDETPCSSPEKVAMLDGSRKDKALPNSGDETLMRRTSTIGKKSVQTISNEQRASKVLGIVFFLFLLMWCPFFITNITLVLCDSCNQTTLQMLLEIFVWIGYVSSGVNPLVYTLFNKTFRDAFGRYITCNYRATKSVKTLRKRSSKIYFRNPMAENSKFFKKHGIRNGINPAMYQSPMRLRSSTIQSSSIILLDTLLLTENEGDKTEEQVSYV

[5] = target: T4, Neuropeptide Y receptor type 2 (Homo sapiens, UniProt P49146)
T4 sequence (P49146 whole entry): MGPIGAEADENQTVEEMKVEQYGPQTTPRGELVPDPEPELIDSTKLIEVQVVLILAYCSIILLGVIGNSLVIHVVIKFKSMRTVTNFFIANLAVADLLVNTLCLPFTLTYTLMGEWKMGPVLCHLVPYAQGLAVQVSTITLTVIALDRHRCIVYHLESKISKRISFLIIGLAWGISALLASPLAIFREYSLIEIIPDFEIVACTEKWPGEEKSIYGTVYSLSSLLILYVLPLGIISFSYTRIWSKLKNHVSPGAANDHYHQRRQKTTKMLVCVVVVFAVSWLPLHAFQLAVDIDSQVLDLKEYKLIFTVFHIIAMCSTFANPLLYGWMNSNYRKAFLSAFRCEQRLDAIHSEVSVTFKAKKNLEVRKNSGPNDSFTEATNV

[6] = target: Neurotensin receptor type 1 (Homo sapiens, UniProt P30989)
Chain of Neurotensin receptor type 1 (P30989 whole entry): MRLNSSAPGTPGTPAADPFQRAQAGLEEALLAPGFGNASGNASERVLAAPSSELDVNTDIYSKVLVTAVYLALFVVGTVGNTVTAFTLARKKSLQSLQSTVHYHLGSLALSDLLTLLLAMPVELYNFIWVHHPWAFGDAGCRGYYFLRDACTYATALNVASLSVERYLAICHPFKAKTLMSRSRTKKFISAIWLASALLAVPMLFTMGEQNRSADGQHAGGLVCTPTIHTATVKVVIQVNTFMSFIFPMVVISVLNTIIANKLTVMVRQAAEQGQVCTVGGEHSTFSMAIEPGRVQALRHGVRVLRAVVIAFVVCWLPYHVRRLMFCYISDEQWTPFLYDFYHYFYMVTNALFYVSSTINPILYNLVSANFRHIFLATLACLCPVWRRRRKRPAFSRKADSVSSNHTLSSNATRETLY

[7] = target: Gamma-aminobutyric acid receptor subunit alpha-1/alpha-2/beta-2/gamma-2 (Homo sapiens, UniProt P14867+P18507+P47869+P47870); type: protein-complex assay
Chain of Gamma-aminobutyric acid receptor subunit alpha-1/alpha-2/beta-2/gamma-2 (P14867 whole entry): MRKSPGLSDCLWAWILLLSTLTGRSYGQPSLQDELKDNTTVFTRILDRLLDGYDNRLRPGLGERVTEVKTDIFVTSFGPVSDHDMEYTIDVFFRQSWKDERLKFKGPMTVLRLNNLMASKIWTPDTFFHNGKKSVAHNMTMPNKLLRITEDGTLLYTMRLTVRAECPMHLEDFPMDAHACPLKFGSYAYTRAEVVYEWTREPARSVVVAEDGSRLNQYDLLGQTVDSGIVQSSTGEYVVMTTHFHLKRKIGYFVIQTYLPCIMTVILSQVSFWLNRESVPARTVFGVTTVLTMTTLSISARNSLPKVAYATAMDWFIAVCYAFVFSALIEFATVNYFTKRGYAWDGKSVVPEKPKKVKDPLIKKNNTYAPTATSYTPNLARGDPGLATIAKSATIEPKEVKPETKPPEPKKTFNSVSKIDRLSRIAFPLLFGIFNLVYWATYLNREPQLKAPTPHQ
Chain of Gamma-aminobutyric acid receptor subunit alpha-1/alpha-2/beta-2/gamma-2 (P47870 whole entry): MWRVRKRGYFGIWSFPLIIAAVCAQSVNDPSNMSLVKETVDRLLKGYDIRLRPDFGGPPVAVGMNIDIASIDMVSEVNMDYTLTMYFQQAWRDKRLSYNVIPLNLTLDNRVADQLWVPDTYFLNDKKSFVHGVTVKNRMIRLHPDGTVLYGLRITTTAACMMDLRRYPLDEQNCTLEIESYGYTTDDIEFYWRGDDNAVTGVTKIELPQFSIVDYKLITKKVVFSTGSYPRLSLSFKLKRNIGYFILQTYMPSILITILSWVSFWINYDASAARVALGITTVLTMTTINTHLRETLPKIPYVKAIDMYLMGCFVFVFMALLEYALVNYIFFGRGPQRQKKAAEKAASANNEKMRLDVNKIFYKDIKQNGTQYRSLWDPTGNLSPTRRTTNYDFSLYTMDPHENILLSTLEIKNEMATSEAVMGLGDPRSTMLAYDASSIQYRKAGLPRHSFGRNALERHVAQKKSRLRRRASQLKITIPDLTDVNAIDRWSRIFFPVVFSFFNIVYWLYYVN
Chain of Gamma-aminobutyric acid receptor subunit alpha-1/alpha-2/beta-2/gamma-2 (P18507 whole entry): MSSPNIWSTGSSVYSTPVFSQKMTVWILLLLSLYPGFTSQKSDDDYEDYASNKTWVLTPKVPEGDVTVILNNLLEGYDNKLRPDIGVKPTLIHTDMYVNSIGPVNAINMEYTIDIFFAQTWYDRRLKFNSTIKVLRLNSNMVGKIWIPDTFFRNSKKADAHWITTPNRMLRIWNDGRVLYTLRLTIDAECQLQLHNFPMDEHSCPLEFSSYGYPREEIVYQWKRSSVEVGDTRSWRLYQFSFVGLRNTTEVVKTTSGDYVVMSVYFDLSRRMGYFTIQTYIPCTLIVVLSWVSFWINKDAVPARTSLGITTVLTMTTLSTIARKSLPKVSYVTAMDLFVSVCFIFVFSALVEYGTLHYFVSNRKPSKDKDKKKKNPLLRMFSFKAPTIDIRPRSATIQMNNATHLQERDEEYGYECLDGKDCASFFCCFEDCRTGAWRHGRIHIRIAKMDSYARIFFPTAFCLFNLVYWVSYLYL
Chain of Gamma-aminobutyric acid receptor subunit alpha-1/alpha-2/beta-2/gamma-2 (P47869 whole entry): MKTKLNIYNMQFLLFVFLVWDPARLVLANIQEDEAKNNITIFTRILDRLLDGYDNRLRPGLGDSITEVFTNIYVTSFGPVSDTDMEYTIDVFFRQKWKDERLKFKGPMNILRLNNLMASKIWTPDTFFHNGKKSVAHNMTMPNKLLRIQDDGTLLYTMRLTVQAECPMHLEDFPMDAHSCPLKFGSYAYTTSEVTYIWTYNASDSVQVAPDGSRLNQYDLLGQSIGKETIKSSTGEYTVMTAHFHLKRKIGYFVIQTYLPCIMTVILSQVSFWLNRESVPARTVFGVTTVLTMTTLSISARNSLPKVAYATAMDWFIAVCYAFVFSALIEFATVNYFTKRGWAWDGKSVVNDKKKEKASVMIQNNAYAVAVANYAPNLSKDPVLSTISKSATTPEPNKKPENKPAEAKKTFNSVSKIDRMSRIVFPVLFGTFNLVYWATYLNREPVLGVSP

Androgen receptor = target: T5, Androgen receptor (Homo sapiens, UniProt P10275)
T5 sequence (P10275 whole entry): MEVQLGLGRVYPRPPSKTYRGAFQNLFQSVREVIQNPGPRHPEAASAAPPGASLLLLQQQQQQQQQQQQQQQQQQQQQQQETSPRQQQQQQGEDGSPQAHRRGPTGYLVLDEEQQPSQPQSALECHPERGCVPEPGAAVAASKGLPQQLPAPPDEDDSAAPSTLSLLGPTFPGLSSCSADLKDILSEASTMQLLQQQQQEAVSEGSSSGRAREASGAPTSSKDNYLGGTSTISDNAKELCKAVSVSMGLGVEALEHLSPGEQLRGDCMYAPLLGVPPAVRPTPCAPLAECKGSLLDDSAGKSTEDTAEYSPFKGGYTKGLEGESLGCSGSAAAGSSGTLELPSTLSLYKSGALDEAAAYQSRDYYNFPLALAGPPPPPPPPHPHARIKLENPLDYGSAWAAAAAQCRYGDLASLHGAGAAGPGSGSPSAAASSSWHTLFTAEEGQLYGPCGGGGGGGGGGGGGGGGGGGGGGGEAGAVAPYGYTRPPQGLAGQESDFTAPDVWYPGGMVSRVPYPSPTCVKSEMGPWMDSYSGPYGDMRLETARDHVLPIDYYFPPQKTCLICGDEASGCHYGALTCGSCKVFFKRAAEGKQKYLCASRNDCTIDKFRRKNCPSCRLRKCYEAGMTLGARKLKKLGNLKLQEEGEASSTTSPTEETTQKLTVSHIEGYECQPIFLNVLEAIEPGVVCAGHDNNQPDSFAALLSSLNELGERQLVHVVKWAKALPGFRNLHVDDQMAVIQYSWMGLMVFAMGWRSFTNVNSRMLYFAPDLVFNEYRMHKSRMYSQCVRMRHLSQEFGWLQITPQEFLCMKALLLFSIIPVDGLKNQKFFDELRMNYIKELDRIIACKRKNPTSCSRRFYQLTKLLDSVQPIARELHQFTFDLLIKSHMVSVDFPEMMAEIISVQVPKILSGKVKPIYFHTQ
Further: assay procedure not described here.

Compound | AC50 [1] [µM] | AC50 [2] [µM] | AC50 [3] [µM] | AC50 [4] [µM] | AC50 [5] [µM] | AC50 [6] [µM] | AC50 [7] [µM] | further results
[H]/N=C(/N)N/C(=N/[H])NCCc1ccccc1 [PHENFORMIN] | > 30 | > 30 | > 30 | 8.9 | > 30 | > 30 |  | 
CCN(CCCc1ccccc1)CCCc1ccccc1 [ALVERINE] |  |  |  |  |  |  | > 30 | 
CCOC(=O)C1=C[C@]2(CC)CCCN3CCc4c(n1c1ccccc41)[C@@H]32 [VINPOCETINE] |  |  |  | > 30 |  |  |  | 
CCC(=O)O[C@]1(C(=O)SCF)[C@H](C)C[C@H]2[C@@H]3C[C@H](F)C4=CC(=O)C=C[C@]4(C)[C@@]3(F)[C@@H](O)C[C@@]21C [FLUTICASONE PROPIONATE] | > 30 | > 30 | > 30 | > 10 | > 30 | > 30 |  | 
CC12CC3CC(C)(C1)CC(N)(C3)C2 [MEMANTINE] | > 30 | > 30 | > 30 |  | > 30 | > 30 |  | 
COc1cc(N2CCC(N3CCN(C)CC3)CC2)ccc1Nc1ncc(Cl)c(Nc2ccccc2P(C)(C)=O)n1 [BRIGATINIB] |  |  |  |  |  |  |  | AC50 (Androgen receptor): > 30 µM
CC(C)COCC(CN(Cc1ccccc1)c1ccccc1)N1CCCC1 (stereo not given) [BEPRIDIL] | > 30 | > 30 | > 30 |  | > 30 | > 30 |  | 
CC(C)(C)NC[C@H](O)COc1cccc2c1CCCC2=O [LEVOBUNOLOL] |  |  |  |  |  |  | > 30 | 
CCC(=O)O[C@]1(C(=O)CCl)[C@@H](C)C[C@H]2[C@@H]3C[C@H](F)C4=CC(=O)C=C[C@]4(C)[C@@]3(F)[C@@H](O)C[C@@]21C [HALOBETASOL PROPIONATE] |  |  |  |  |  |  | > 30 | 
CCOC(=O)C1=C(C)NC(C)=C(C(=O)OC)C1c1cccc([N+](=O)[O-])c1 (stereo not given) [NITRENDIPINE] | > 30 | > 30 | > 30 | > 10 | > 30 | > 30 |  | 
NCC(CC(=O)O)c1ccccc1 (stereo not given) [PHENIBUT] |  |  |  |  |  |  |  | AC50 (Androgen receptor): > 30 µM
c1ccc2c(c1)CCc1ccccc1N2C1CN2CCC1CC2 (stereo not given) [QUINUPRAMINE] |  |  |  |  |  |  | > 30 | AC50 (Androgen receptor): > 30 µM
CCOC(=O)N1CSC[C@H]1C(=O)O [TELMESTEINE] |  |  |  |  |  |  | > 30 | AC50 (Androgen receptor): > 30 µM
CCC[C@H](NC(=O)[C@@H]1[C@H]2CCC[C@H]2CN1C(=O)[C@@H](NC(=O)[C@@H](NC(=O)c1cnccn1)C1CCCCC1)C(C)(C)C)C(=O)C(=O)NC1CC1 |  |  |  | > 10 |  |  |  | 
Cc1cc(C(C)(C)C)cc(C)c1CC1=NCCN1 [XYLOMETAZOLINE] |  |  |  | 1.56 |  |  |  | 
Cc1ncc(COP(=O)(O)O)c(C=O)c1O [PYRIDOXAL PHOSPHATE ANHYDROUS] |  |  |  |  |  |  | > 30 | 
OC1(c2ccc(Cl)cc2)c2ccccc2C2=NCCN21 (stereo not given) [MAZINDOL] | > 30 | 33.1 | > 30 | > 10 | > 30 | > 30 |  | 

Compound | AC50 [1] [µM] | AC50 [2] [µM] | AC50 [3] [µM] | AC50 [4] [µM] | AC50 [5] [µM] | AC50 [6] [µM] | AC50 [7] [µM] | further results
Oc1ccc2c(c1)CC[C@H](c1ccccc1)[C@@H]2c1ccc(OCCN2CCCC2)cc1 [LASOFOXIFENE] |  |  |  | 0.272 |  |  |  | 
CN1CCN(C2=Nc3ccccc3Oc3ccc(Cl)cc32)CC1 [LOXAPINE] | > 30 | > 30 | > 30 |  | > 30 | > 30 |  | 
O=C(O)c1cn(C2CC2)c2cc(N3CCNCC3)c(F)cc2c1=O [CIPROFLOXACIN] | > 30 | > 30 | > 30 |  | > 30 | > 30 |  | 
COC(=O)c1ccc(O)cc1 [METHYLPARABEN] |  |  |  |  |  |  | > 30 | 
Cc1ccccc1N1CCN(CCc2nnc3n2CCCC3)CC1 [DAPIPRAZOLE] |  |  |  |  |  |  | > 30 | 
COc1cc(N)c(Cl)cc1C(=O)NC1CCN(Cc2ccccc2)CC1 [CLEBOPRIDE] |  |  |  | 0.0079 |  |  |  | 
CC(C)N(CCNC(=O)CN1CCCC1=O)C(C)C |  |  |  |  |  |  | > 30 | AC50 (Androgen receptor): > 30 µM
C[C@H](Cc1cc2c(c(C(N)=O)c1)N(CCCO)CC2)NCCOc1ccccc1OCC(F)(F)F [SILODOSIN] |  |  |  |  |  |  | > 30 | AC50 (Androgen receptor): > 30 µM
CCCc1nc(C(C)(C)O)c(C(=O)O)n1Cc1ccc(-c2ccccc2-c2nnn[nH]2)cc1 [OLMESARTAN] |  |  |  |  |  |  | > 30 | AC50 (Androgen receptor): > 30 µM
CC(CCc1ccc(O)cc1)NCCc1ccc(O)c(O)c1 (stereo not given) [DOBUTAMINE] | > 30 | > 30 | > 30 | > 10 | > 30 | > 30 |  | 
CN(C)CCOC(c1ccccc1)c1ccc(Br)cc1 (stereo not given) [BROMODIPHENHYDRAMINE] |  |  |  |  |  |  |  | AC50 (Androgen receptor): > 30 µM
CC1=CCC(C(C)(C)O)CC1O (stereo not given) [SOBREROL] |  |  |  |  |  |  | > 30 | AC50 (Androgen receptor): > 30 µM
Cc1c(N(C)CS(=O)(=O)O)c(=O)n(-c2ccccc2)n1C [METAMIZOLE] |  |  |  |  |  |  | > 30 | 
CN(C)CCCNc1c2ccccc2nc2cccc([N+](=O)[O-])c12 [NITRACRINE] |  |  |  | 0.2 |  |  |  | 
Cc1cnc(C(=O)NCCc2ccc(S(=O)(=O)NC(=O)NC3CCCCC3)cc2)cn1 [GLIPIZIDE] | > 30 | > 30 | > 30 |  | > 30 | > 30 |  | 
CC(C)NCC(O)c1ccc(O)c(O)c1 (stereo not given) [ISOPROTERENOL] | > 30 | > 30 | > 30 | > 10 | > 30 | > 30 |  | 
CC(N)C(O)c1ccccc1 (stereo not given) [PHENYLPROPANOLAMINE] | > 30 | > 30 | > 30 | > 10 | > 30 | > 30 |  | 
